Assay results as given in patent US6034215A, “3-amino-2-oxo-1-piperidnercetic derivatives as enzyme inhibitors” (Corvas International, Inc., priority 1997, dated 2000).
Like-named read-outs stand apart in the source and are kept apart here.

Key:
human α-thrombin = human α-thrombin (Homo sapiens, UniProt P00734); assay: In vitro enzyme assay for specificity: Thrombin (fIIa) assay, IC50; assay type: biochemical
Protocol: IC50 determinations were conducted where HBSA (50 μL), α-thrombin (50 μl) and inhibitor (50 μl) (covering a broad concentration range), were combined in appropriate wells and incubated for 30 minutes at room temperature prior to the addition of substrate Pefachrome-t-PA (50 μl).

citrated rat plasma = assay: Anticoagulant effect in rat plasma, activated partial thromboplastin time (APTT) assay; assay type: biochemical; settings: for prolongation of the APTT: rat plasma, broad concentration range of added inhibitor
Protocol: (§1) The ex vivo anticoagulant effects of BzlSO2 -norVal (cyclo)-Gly-Arg-al(Example 8) and N-(BnSO2 -norLeu (cyclo)-Gly)-L-argininal (Example 34) were determined by measuring the prolongation of the activated partial thromboplastin time (APTT) over a broad concentration range of the added inhibitor, using pooled normal human and rat plasma.
(§2) Fresh frozen citrated pooled normal human plasma was obtained from George King Biomedical, Overland Park, Kans. Pooled normal rat plasma was prepared from citrated whole blood collected from anesthetized rats using standard procedures. The plasma was flash frozen and stored at -80° C. until use.
(§3) Measurements APTT was made using the Coag-A-Mate RA4 automated coagulometer (General Diagnostics, Organon Technica, Oklahoma City, Okla.) using the Automated APTT reagent (Organon Technica, Durham, N.C.) as the initiator of clotting according to the manufacturers instructions. The assay was conducted by making a series of dilutions of the test compounds in rapidly thawed plasma followed by adding 200 microliters to the wells of the assay carousel.

citrated human plasma = assay: Anticoagulant effect in human plasma, activated partial thromboplastin time (APTT) assay; assay type: biochemical; settings: for concentration which caused a doubling of the control clotting time (APTT): citrated human plasma, mean of two independent determinations; for prolongation of the APTT: human plasma, broad concentration range of added inhibitor
Protocol: as §1, §2, §3

human alpha-thrombin = human alpha-thrombin (Homo sapiens, UniProt P00734); assay: Kinetic analysis in an in vitro thrombin inhibition assay (Ki); assay type: biochemical; settings: Table 1; Mean ± SD, n = 3; steady state velocities over 40 minutes
Protocol: Enzyme activity was determined using the chromogenic substrate Pefachrome t-PA (CH3SO2-D-hexahydrotyrosine-glycyl -L-arginine-p-Nitroanilide), obtained from Pentapharm Ltd. The substrate was reconstituted in deionized water prior to use. Purified human alpha-thrombin (3000U/mg specific activity) was obtained from Enzyme Research Laboratories, Inc. The buffer used for all assays was HBSA (10 mM HEPES, pH 7.5, 150 mM sodium chloride, 0.1% bovine serum albumin).
Velocities of chromogenic substrate hydrolysis which occurred over 40 minutes was measured by the change in absorbance at 405 nm using a Thermo Max® Kinetic Microplate Reader. […] The extent of substrate hydrolysis was less than 5% over the course of this assay.

[1] = tested on: activated partial thromboplastin time (APTT); assay: Oral activity in dogs: clotting time of blood samples by APTT assay; assay type: in vivo, beagle dogs; settings: after oral dosing
Protocol: (§4) The pharmacodynamic and pharmacokinetic parameters of the compound of Example 34 were evaluated after oral administration in dogs. Adult beagle dogs (9-12 kg) were housed individually in standard cages, and were fed a standard certified commercial diet and tap water ad libitum. Dogs were given an oral dose of 20 mg/kg test compound, in 55 ml deionized water, via a gastric tube, followed by a water rinse. In a separate protocol, 5 mg/kg of test compound, in 5 ml 0.9% sodium chloride, were administered by fast bolus i.v. injection through an indwelling saphenous vein catheter. The same dogs were used for both routes of administration, with a one week wash out period between use of the dogs for the different protocols.
After mixing with the anticoagulant, each blood sample was immediately chilled by immersion in a slurry of ice and water. The plasma was separated by centrifugation (4° C., 2400 rpm, 10 min) within 10 min of collection, and then transferred to a cryotube and stored at […] until analysis.
(§5) The blood levels of test compound were measured by extracting the compound from plasma, separation by HPLC, and post-column derivatization with a fluorogenic functional group. The clotting time of blood was measured using an APTT assay, which measures the prolongation of the activated partial thromboplastin time (APTT) by the test compound. […]

[2] = Oral activity in dogs: blood levels and bioavailability; assay type: in vivo, beagle dogs
Protocol: as §4, with “protocols. […]” for “protocols.”
as §5
The systemic bioavailability of the test compound administered by the oral route was calculated by comparing the AUC values (area under curve describing level of compound in blood over time) after i.v. and oral administration. […]

[3] = target: T1, bovine pancreatic trypsin (Bos taurus, UniProt P00760); assay: In vitro enzyme assay for specificity: trypsin, IC50; assay type: biochemical; settings: Table 2
T1 sequence (P00760 24-246): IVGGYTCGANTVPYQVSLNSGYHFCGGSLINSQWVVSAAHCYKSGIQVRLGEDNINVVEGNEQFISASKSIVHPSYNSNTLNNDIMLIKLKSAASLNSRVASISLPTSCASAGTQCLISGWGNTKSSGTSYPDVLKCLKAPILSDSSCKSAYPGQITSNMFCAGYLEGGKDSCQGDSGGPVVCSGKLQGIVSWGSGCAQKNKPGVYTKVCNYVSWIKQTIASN
Protocol: Trypsin catalytic activity was determined using the chromogenic substrate, S-2222 (benzoyl-L-isoleucine-L-glutamic acid-(gamma-methyl ester)-L-arginine-p-nitroanilide), which was obtained from Kabi Diagnostica. […] Purified (3×-crystallized; TRL3) bovine pancreatic trypsin was obtained from Worthington Biochemical Corp. The enzyme was reconstituted in deionized water and diluted into HBSA prior to assay in which the final concentration was 0.5 nM.

[4] = tested on: FeCl3 -induced Platelet-dependent Arterial Thrombosis; assay: Rat model of FeCl3 -induced platelet-dependent arterial thrombosis; assay type: in vivo; settings: for ED50 for thrombus prevention (dose that prevents complete thrombotic occlusion in 50% of animals tested): rat FeCl3 model of arterial thrombosis; for Incidence of Occlusion: rat
Text: This is a well characterized model of platelet dependent, arterial thrombosis which has been used in the evaluation potential antithrombotic compounds such as direct thrombin inhibitors. Kurz, K. D., Main, B. W., and Sandusky, G. E., Thromb. Res., 60: 269-280 (1990). In this model a platelet-rich, occlusive thrombus is formed in a segment of the rat carotid artery treated locally with a fresh solution of FeCl3 absorbed to a piece of filter paper. The FeCl3 is thought to diffuse into the treated segment of artery and causes de-endothelialization of the affected vessel surface. […] The effect of a test compound on the incidence of occlusive thrombus formation following the application of the FeCl3 is monitored by ultrasonic flowtometry and is used as the primary end point. The use of flowtometry to measure carotid artery blood flow, is a modification of the original procedure in which thermal detection of clot formation was employed. Kurz, K. D., Main, B. W., and Sandusky, G. E., Thromb. Res., 60: 269-280 (1990).
Male Harlan Sprague Dawley rats (420-450 g) were acclimated at least 72 hours prior to use and fasted for 12 hours prior to surgery with free access to water. The animals were prepared, anesthetized with Nembutal followed by the insertion of catheters for blood pressure monitoring, drug and anesthesia delivery. The left carotid artery was isolated by making a midline cervical incision followed by blunt dissection and spreading techniques to separate a 2 cm segment of the vessel from the carotid sheath. A silk suture is inserted under the proximal and distal ends of the isolated vessel to provide clearance for the placement of a ultrasonic flow probe (Transonic) around the proximal end of the vessel. The probe is then secured with a stationary arm.
Following surgery the animals were randomized in either a control (saline) or treatment group with test compound (BzlSO2 -norVal(cyclo)-Gly-Arg-al or N-(BnSO2 -norLeu(cyclo)Gly)-L-argininal)with at least 6 animals per group per dose. The test compound was administered as a single intravenous bolus at the doses outlined in Table 3 after placement of the flow probe and 5 minutes prior to the thrombogenic stimulus. At t=0, a 3 mm diameter piece of filter paper (Whatman #3) soaked with 10 microliters of a 35% solution of fresh FeCl3 (made up in water) was applied the segment of isolated carotid artery distal to the flow probe. Blood pressure, blood flow, heart rate, and respiration were monitored for 60 minutes.
The incidence of occlusion (defined as the attainment of zero blood flow) was recorded as the primary end point.
This allows a direct comparison of the antithrombotic efficacy of BzlSO2 -norVal(cyclo)-Gly-Arg-al and N-(BnSO2 -norLeu(cyclo)-Gly)-L-argininal with other antithrombotic agents which have also been evaluated in this model as described above. Table 6 lists the ED50 values for several well known anticoagulant agents in this model compared to the present compounds.

human aPC = target: T2, human aPC (Homo sapiens, UniProt P04070); assay: In vitro enzyme assay for specificity: activated protein C, IC50; assay type: biochemical; settings: Table 3
T2 construct: purchased Hematologic Technologies, Inc
T2 sequence (P04070 43-197 limits assumed): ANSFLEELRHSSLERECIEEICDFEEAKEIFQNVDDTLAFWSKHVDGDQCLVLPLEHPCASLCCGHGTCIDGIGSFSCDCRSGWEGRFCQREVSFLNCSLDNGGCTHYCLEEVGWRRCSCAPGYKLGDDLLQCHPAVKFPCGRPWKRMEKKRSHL
T2 sequence (P04070 212-461 limits assumed): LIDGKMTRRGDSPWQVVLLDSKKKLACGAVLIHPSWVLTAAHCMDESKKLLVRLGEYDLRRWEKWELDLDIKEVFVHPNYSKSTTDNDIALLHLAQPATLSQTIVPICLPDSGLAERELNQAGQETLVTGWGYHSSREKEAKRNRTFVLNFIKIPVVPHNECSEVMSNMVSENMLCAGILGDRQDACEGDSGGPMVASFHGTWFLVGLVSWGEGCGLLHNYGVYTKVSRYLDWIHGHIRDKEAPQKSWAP
Protocol: aPC catalytic activity was determined using the chromogenic substrate, Pefachrome PC (delta-carbobenzloxy-D-lysine -L-prolyl-L-arginine-p-nitroanilide), obtained from Pentapharm Ltd.). […] Purified human aPC was obtained from Hematologic Technologies, Inc. The enzyme was diluted into HBSA prior to assay in which the final concentration was 1.0 nM.

Human rt-PA (Activase®) = target: T3, Human rt-PA (Activase®) (Homo sapiens, UniProt P00750); assay: In vitro enzyme assay for specificity: recombinant tissue plasminogen activator, IC50; assay type: biochemical; settings: Table 3
T3 construct: purchased Genentech Inc. Activase®
T3 sequence (P00750 36-562): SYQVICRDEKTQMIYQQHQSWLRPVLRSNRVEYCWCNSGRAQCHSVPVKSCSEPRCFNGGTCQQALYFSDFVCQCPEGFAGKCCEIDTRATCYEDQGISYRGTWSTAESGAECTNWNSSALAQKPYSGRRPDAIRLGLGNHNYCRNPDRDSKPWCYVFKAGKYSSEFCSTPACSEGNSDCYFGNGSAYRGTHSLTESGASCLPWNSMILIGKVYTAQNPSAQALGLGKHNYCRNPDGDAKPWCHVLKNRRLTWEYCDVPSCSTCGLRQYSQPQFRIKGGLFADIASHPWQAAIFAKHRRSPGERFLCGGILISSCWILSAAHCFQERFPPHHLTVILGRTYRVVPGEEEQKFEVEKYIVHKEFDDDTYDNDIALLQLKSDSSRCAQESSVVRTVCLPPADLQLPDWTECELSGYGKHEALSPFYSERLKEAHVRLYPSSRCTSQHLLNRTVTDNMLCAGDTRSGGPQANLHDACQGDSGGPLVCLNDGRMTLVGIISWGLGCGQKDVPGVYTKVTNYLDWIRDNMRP
Protocol: The buffer used for all assays was HBSA (10 mM HEPES, pH 7.5, 150 mM sodium chloride, 0.1% bovine serum albumin). […] Following a 30-minute incubation at ambient temperature, 50 microliters of the substrate at the concentrations specified below, was added to the wells yielding a final total volume of 200 microliters. The initial velocity of chromogenic substrate hydrolysis was measured by the change in absorbance at 405nm using a Thermo Max® Kinetic Microplate Reader over a 5 minute period in which less than 5% of the added substrate was utilized.
rt-PA catalytic activity was determined using the substrate, Pefachrome t-PA (CH3SO2-D-hexahydrotyrosine-glycyl-L-arginine-p-nitroanilide, obtained from Pentapharm Ltd.). […] Human rt-PA (Activase®) was obtained from Genentech Inc. The enzyme was reconstituted in deionized water and diluted into HBSA prior to the assay in which the final concentration was 1.0 nM.

human plasmin = human plasmin (Homo sapiens, UniProt P00747); assay: In vitro enzyme assay for specificity: plasmin assay, IC50; assay type: biochemical; settings: Table 3
human plasmin, sequence (P00747 97-580 limits assumed): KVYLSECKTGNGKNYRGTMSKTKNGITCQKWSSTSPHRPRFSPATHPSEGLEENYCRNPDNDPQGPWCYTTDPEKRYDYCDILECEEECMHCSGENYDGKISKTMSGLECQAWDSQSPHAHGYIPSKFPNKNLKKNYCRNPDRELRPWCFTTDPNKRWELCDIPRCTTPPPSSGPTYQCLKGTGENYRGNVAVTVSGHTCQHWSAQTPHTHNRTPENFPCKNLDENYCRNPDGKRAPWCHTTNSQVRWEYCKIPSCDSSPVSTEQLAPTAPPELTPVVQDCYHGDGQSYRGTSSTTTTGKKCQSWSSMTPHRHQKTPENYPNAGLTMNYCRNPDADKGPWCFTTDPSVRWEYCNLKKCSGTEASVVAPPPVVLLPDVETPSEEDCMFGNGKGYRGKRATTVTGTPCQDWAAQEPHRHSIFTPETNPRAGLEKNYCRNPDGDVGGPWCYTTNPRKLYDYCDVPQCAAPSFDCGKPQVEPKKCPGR
human plasmin, sequence (P00747 581-810 limits assumed): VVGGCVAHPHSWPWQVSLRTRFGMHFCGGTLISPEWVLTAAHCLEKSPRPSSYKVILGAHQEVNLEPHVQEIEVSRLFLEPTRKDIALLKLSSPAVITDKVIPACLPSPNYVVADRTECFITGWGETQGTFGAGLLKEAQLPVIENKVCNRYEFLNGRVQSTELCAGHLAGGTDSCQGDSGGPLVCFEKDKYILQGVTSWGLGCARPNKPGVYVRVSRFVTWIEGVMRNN
Protocol: Plasmin catalytic activity was determined using the chromogenic substrate, S-2251 (D-valyl-L-leucyl-L-lysine-p-nitroanilide), which was obtained from Kabi Diagnostica.

[5] = Table 3, read-out: IC50 (nM) thrombin
[6] = Table 2, 30-minute incubation with enzyme before substrate, read-out: IC50 alpha-thrombin
[7] = 0.3 mg/kg single intravenous bolus 5 minutes prior to FeCl3, n 6, monitored 60 minutes
[8] = 1.0 mg/kg single intravenous bolus 5 minutes prior to FeCl3, n 6, monitored 60 minutes
[9] = 3.0 mg/kg single intravenous bolus 5 minutes prior to FeCl3, n 6, monitored 60 minutes
[10] = 5.0 mg/kg single intravenous bolus 5 minutes prior to FeCl3, n 6, monitored 60 minutes

SMILES | IC50 (human α-thrombin; [5]) [nM] | IC50 [3] [nM] | IC50 (human aPC) [nM] | IC50 (Human rt-PA (Activase®)) [nM] | IC50 (human plasmin) [nM] | also measured
Cc1ccccc1CS(=O)(=O)NC1CCCN(CC(=O)N[C@H](C=O)CCCNC(=N)N)C1=O (stereo partly drawn) [Example 36(q), N-(2-methylbenzyl-SO2-norLeu(cyclo)-Gly)-L-argininal] | 1.71 |  |  |  |  | 
NC(N)=NCCC[C@@H](C=O)NC(=O)CN1CCCCC(NS(=O)(=O)Cc2ccccc2)C1=O (stereo partly drawn) [Example 34, N-(BnSO2 -norLeu(cyclo)-Gly)-L-argininal] | 0.71 | 72 |  |  |  | prolongation of the APTT (citrated rat plasma): prolonged the APTT in a dose-dependent manner; concentration which caused a doubling of the control clotting time (APTT) (citrated human plasma): 4.5 µM; prolongation of the APTT (citrated human plasma): prolonged the APTT in a dose-dependent manner; Ki (human alpha-thrombin): 0.538 ± 0.08 nM; time to significant elevation of APTT [1]: 20 to 30 min; time at which blood level of compound reached maximum levels ([2]; after administration): 30 to 40 min; systemic bioavailability (ratio of AUC oral to AUC i.v.) ([2]; oral 20 mg/kg vs i.v. 5 mg/kg, corrected for difference in dose): approximately 66%; IC50 (human α-thrombin; [6]): 0.93 nM; ED50 for thrombus prevention (dose that prevents complete thrombotic occlusion in 50% of animals tested) [4]: 2.1 mg/kg; Incidence of Occlusion [4, 7]: 6/6; Incidence of Occlusion [4, 8]: 6/6; Incidence of Occlusion [4, 9]: 2/6; Incidence of Occlusion [4, 10]: 2/6
NC(N)=NCCC[C@@H](C=O)NC(=O)CN1CCCC(NS(=O)(=O)Cc2ccccc2)C1=O (stereo partly drawn) [Example 8, N-benzylsulfonyl-norVal(cyclo)-Gly-L-argininal] |  | 1550 | > 2500 | > 2500 |  | concentration which caused a doubling of the control clotting time (APTT) (citrated rat plasma; citrated rat plasma, control clotting time 20 sec, mean of two independent determinations): 22.1 µM; prolongation of the APTT (citrated rat plasma): prolonged the APTT in a dose-dependent manner; concentration which caused a doubling of the control clotting time (APTT) (citrated human plasma): 12.8 µM; prolongation of the APTT (citrated human plasma): prolonged the APTT in a dose-dependent manner; ED50 for thrombus prevention (dose that prevents complete thrombotic occlusion in 50% of animals tested) [4]: 0.75 mg/kg; Incidence of Occlusion [4, 7]: 6/6; Incidence of Occlusion [4, 8]: 2/6; Incidence of Occlusion [4, 9]: 1/6; Incidence of Occlusion [4, 10]: 0/6
N=C(N)NCCC[C@@H](C=O)NC(=O)CN1CCCC(NS(=O)(=O)Cc2cccc(C(F)(F)F)c2)C1=O (stereo partly drawn) [Example 36(p), N-(3-trifluoromethylbenzyl-SO2-norLeu(cyclo)-Gly)-L-argininal] | 1.9 |  | > 2500 | > 2500 | > 2500 | 
N=C(N)NCCC[C@@H](C=O)NC(=O)CN1CCC[C@H](NCCc2ccccc2)C1=O [Example 72(a), N-[(S)-3-N-phenylethylamino-2-oxo-1-piperidineacetyl]-L-argininal] | 3.09 |  | > 2500 | > 2500 | > 2500 | 
NC(N)=NCCC[C@@H](C=O)NC(=O)CN1CCCCC(NS(=O)(=O)CC2CCCCC2)C1=O (stereo partly drawn) [Example 36(i), N-(cyclohexylmethyl-SO2 -norLeu(cyclo)-Gly)-L-argininal] |  | 7.86 |  |  | > 2500 | IC50 (human α-thrombin; [6]): 4.54 nM
NC(N)=NCCC[C@@H](C=O)NC(=O)CN1CCCCC(NS(=O)(=O)Nc2ccccc2)C1=O (stereo partly drawn) [Example 36(n), N-(phenylamino-SO2 -norLeu(cyclo)-Gly)-L-argininal] | 14.2 |  |  |  | > 2500 | 
NC(N)=NCCC[C@@H](C=O)NC(=O)CN1CCCC(N)(Cc2ccccc2)C1=O (stereo partly drawn) [Example 55, N-[D, L-3-Amino-3-benzyl-2-oxo-1-piperidineacetyl]-L-argininal] | 5.41 |  | > 2500 | > 2500 | > 2500 | 
NC(N)=NCCC[C@@H](C=O)NC(=O)CN1CCCCC(N)(Cc2ccccc2)C1=O (stereo partly drawn) [Example 64, N-[D,.L-3-Amino-3-benzyl-hexahydro-2-oxo-azepine-1-acetyl]-L-argininal] | 5.41 |  | > 2500 | > 2500 | > 2500 | 
Cc1cccc(CS(=O)(=O)NC2CCCCN(CC(=O)N[C@H](C=O)CCCN=C(N)N)C2=O)c1 (stereo partly drawn) [Example 36(r), N-(3-methylbenzyl-SO2-norLeu(cyclo)-Gly)-L-argininal] | 0.93 |  |  |  |  | 
